The test system of series [1] is RIF-1 (radiation-induced fibrosarcoma) tumors. Put plainly: PDT of RIF-1 implanted tumors. Set-up: key to Tumor Responses at 24 hours: complete: no evidence of any tumor mass in any animal; only the scar from the photodynamic therapy was evident.; near complete: evidence of any tumor mass in four or five animals; only some tumor mass in one or two animals.; substantial: a significant tumor shrinkage occurred in all animals. In some animals the tumor response was complete, yet in others the response was not complete.; moderate: some tumor shrinkage was evident in some animals. In animals with some tumor shrinkage, scar formation was evident.; slight: some tumor decrease occurred in one or two mice. The class given is in vivo, C3H/HeN mice. The settings on record: 1 mg/kg in corn oil, 675 nm. The protocol:
The relative effectiveness at reducing tumor volume of selected phthalocyanine compounds at a given dosage was compared in vivo. RIF-1, i.e., radiation-induced fibrosarcoma, tumors were implanted into the backs of C3H/HeN mice. One tumor was implanted per mouse. Each of the phthalocyanine compounds listed in Table 7 was sonicated and vortexed in corn oil to produce a suspension. When the tumors reached […] in diameter and 2-3 mm in thickness, each mouse received 1 mg/kg in 0.1 mL of the corn oil, of the phthalocyanine suspension. For comparison, select mice received a conventional photosensitizer; either 5 mg/kg of chloroaluminum phthalocyanine tetrasulfonate, herein also referred to as “AlPcTS” in phosphate buffered saline or 5 mg/kg of Photofrin®-II in 5% dextrose. Twenty-four hours after the photosensitizers were administered, the tumors were irradiated with visible radiation delivered by an argon-pumped dye laser. The mice that received a phthalocyanine photosensitizer received light having a wavelength of 675 nm and the mice that received the Photofrin® II photosensitizer received light having a wavelength of 630 nm. Each tumor received 135 J/cm^2 of radiation. Tumor size was measured every day using calipers. The initial tumor volume was 50±10 mm^3. Tumor volume was calculated according to the hemiellipsoid model by the formula: V=½(4π)/3×(½×(w/2))×h
• complete—no evidence of any tumor mass in any animal; only the scar from the photodynamic therapy was evident. • near complete—evidence of […] in four or five animals; only some tumor mass in one or two animals. • substantial—a significant tumor shrinkage occurred in all animals. In some animals the tumor response was complete, yet in others the response was not complete. • moderate—some tumor shrinkage was evident in some animals. In animals with some tumor shrinkage, scar formation was evident. • slight—some tumor decrease occurred in one or two mice.

A further series can be described thus: Solubility. The class given is physicochemical.
Another series relates to L5178Y cells. Put plainly: Induction of apoptosis (DNA ladder) in L5178Y cells after PDT. The class given is cell-based, Mouse. Particulars: for induction of apoptosis: 1 μM at a fluence of 30 kJ/m^2; for Fluence, Minimum Demonstrated Condition to Induce Apoptosis / C × F Ld90, Minimum Demonstrated Condition to Induce Apoptosis: 0.5 μM; for Fluence, Minimum Demonstrated Condition to Induce Apoptosis: suspended in DMF-Tween 80; for C × F Ld90, Minimum Demonstrated Condition to Induce Apoptosis: suspended in DMF-Tween 80, product of concentration and fluence.

Series [2] relates to Chinese hamster V79-379 lung fibroblasts. Put plainly: Growth delay of V79 cultures after phthalocyanine and red light. The class given is cell-based. The settings on record: V79 cells, 1.0 μM, 18 hours, 12 kJ/m^2 red light. Here is the method:
At the time of light exposure, there were approximately 1.5×10^5 cells per 25 cm^2 flask. Following irradiation, the HBSS was replaced by 10 mL of fresh complete growth medium, and the cultures were returned to the 37° C. incubator. At various times before and after irradiation, duplicate cultures were trypsinized and counted. Controls included untreated cells and cells treated with light alone or drug alone. In addition, in each experiment, the drug to be tested was compared to a standard treatment, i.e. 1 μM AlPcCl for 18 hours followed by 12 kJ/m^2 light.
The inhibition of V79 culture growth was measured during a three day period following red light irradiation (12 kJ/m^2) of phthalocyanine-pretreated cells. With each of the active compounds, as well as with AlPcCl, there was an initial decrease in cell density, as dead cells became detached from the monolayer. Thereafter, the cell number per flask increased, as living cells grew and divided. The time for the cell density to recover to the level at the time of light exposure was considered the growth delay. […] The ratio of the growth delay for the test photosensitizer and the growth delay for AlPcCl measured in the same experiment is recorded in Table 1. There was less inhibition of culture growth when cells were exposed to compounds III, V, or VI as expected from the poor cellular uptake of these drugs.

The test system is the same in series [3]. Kind of series: Uptake of phthalocyanines into V79 cells. Particulars: V79 cells, 1.0 μM, 18 hours. In a few lines:
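V79-379 cells were incubated with phthalocyanine for 18 h, typically at 1, 2 and/or 4 μM. Cells collected on filters were extracted into ethanol and absorbance read at the peak, usually 668 nm. Values are nmol per 10^6 cells, using ε 2.93×10^5.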

Series [4] shares this test system. Put plainly: Clonogenic cell survival of V79 cells after photodynamic treatment. The class given is cell-based. The settings on record: for CF10(AIPcCI)/CF10 (Pc) / F10(AIPcCI)/F10 (Pc): 1.0 μM; for CF10(AIPcCI)/CF10 (Pc): CF10 = product of intracellular concentration and fluence reducing survival to 10%; for F10(AIPcCI)/F10 (Pc): F10 = fluence reducing cell survival to 10%. In a few lines:
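V79 cells exposed to 0.5 or 1.0 μM phthalocyanine, then irradiated about 18 h later with increasing fluences of broad-band red light (600 nm high-pass filter). Survival scored as colonies of ≥50 cells. F10 taken from survival curves; CF10 from survival against intracellular concentration × fluence; 1 μM AlPcCl run as reference.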

Series [5] in a line: Photolysis of solutions by white light. The class given is physicochemical.
Series [6] has as its system human skin keratome biopsies. Kind of series: Penetration of topically applied PcIV and salts into human skin, confocal fluorescence microscopy. The class given is in vitro ADME. Here is the method: Human skin absorption of PcIV was analyzed by fluorescence confocal microscopy. PcIV fluorescence, upon activation with a HeNe laser at 633 nm, was visualized using a 650 long pass filter. Briefly, 0.4 mm thick human keratomes were removed from the gluteal region of healthy volunteers and divided into 1.5 cm×1.5 cm squares of skin. Upon application of PcIV to the epidermis in a vehicle of ethanol and propylene glycol, visualization of penetration of PcIV was achieved by fluorescence. Pc 4 was then prepared as PcIV-pyruvate and PcIV-HCl and applied in the same vehicle as Pc 4 to the epidermis. Three concentrations, namely, 0.1 mg/mL, 0.05 mg/mL, and 0.01 mg/mL were tested per PcIV formulation. Skin was incubated at 37° C. for 1, 2, and 4 hours, along with vehicle controls. […] Maximum PcIV fluorescence was detectable using laser transmission of 3% for the 0.1 mg/mL and 30% for the 0.01 mg/mL. Both PcIV.pyruvate and PcIV.HCl however could be visualized with a laser transmission of 2-3% for the 0.1 mg/mL and 7-9% for the 0.01 mg/mL concentrations.
The ability of PcIV and the newly prepared PcIV salts (HCl and pyruvate) to penetrate into the epidermis of keratome derived biopsies was examined. The time course of penetrance as well as the effect of dose of the PcIV compounds were evaluated. PcIV and the PcIV.HCl and PcIV.pyruvate salts were resuspended in ethanol (100%, 1 part PcIV, 499 parts ethanol) and then diluted to final concentrations in a 30% Propylene Glycol 70% Ethanol mixture.
Keratome biopsies of normal skin were obtained from normal volunteers after written consent according to UHHS IRB protocol # 05-95-03. To date, seven experiments have been performed. The range of age for volunteers was 20-40 yrs. Individuals represented Fitzpatrick skin types between I-III. Skin biopsies were held in PBS following the keratome procedure until processed for PcIV Application (less than 1 hr). The keratome skin samples (1.5 cm^2) were overlayed onto sterile gauze in 80 mm tissue culture petri dishes epidermal side down. PcIV compounds were then applied to the corners of the sterile gauze and allowed to “wick” through the gauze and contact the epidermis of the skin for the indicated times. Following the incubation, the tissue was removed from the gauze and washed three times in phosphate buffered saline and held, in PBS, until analysis by confocal microscopy. Confocal images were acquired using a 20×N.A. 0.5 water immersion objective on a Zeiss 510 confocal microscope. PcIV fluorescence was elicited using a 633 nm wavelength for excitation, and collected with a 633 nm dichroic mirror and 650 nm long-pass filter.

The test system of series [7] is human breast cancer MCF-7c3 cells. Kind of series: Uptake of PcIV salts into MCF-7c3 cells by flow cytometry. Particulars: 50, 100 or 200 nM, 60 minutes, mean channel fluorescence normalized to PcIV. (A flow cytometer gives signals particle by particle.)
Protocol: Cells were grown in 5 mL of RPMI-1640 medium supplemented with 10% fetal calf serum in 60-mm diameter Petri dishes in a 37° C. incubator in an atmosphere of 5% CO2, 95% air. Cultures were used when they were in exponential growth. For experiments, various concentrations (50, 100, or 200 nM) of each compound (PcIV, PcIV-HCl, PcIV-pyruvate), were added to the medium above the cells, and the dishes were returned to the incubator for 60 minutes to allow the photosensitizers to enter the cells. To evaluate uptake, the medium was removed, and the cells were detached from the plastic surface with trypsin and collected by centrifugation. The cell pellet was suspended in phenol-red-free Hank's balanced salt solution and analyzed by flow cytometry (λex=335-355 nm; emission collected through a 650-nm long-pass filter). For each cell sample, the data were expressed as the mean channel fluorescence and background was subtracted. Data for each concentration of the PcIV salts were then normalized to those for the same concentration of PcIV in the same experiment. […] Error bars represent the standard deviation of the mean.

Structures can show the parent of a compound that is named as a salt. Where two headings read alike, the source gives them in different places.

The values below come from patent publication US8211883B2, “Topical delivery of phthalocyanines” (priority 2004, dated 2012).

Protocol for L5178Y cells: The cells were used while in exponential growth. Stock solutions of either 0.5 or 1 mM of PcIV, PcXII, PcX, PcXVIII were prepared in dimethylformamide unless otherwise indicated and added to the 10 mL medium at a rate of 1 μL per mL. After allowing 18 hours for uptake of the phthalocyanine into the cells, the flasks containing the cultures were placed on a glass exposure tray above a 500-W tungsten-halogen lamp. The exposure tray was fitted with a 600-nm high-pass filter. Flasks were exposed to various fluences of red light (up to 30 kJ/m^2) at a fluence rate of approximately 74 W/m^2). After irradiation, the cells were collected by centrifugation.
The aliquots were plated in sufficient numbers to produce 50-200 colonies. The dishes were kept in an incubator at 37° C. in an atmosphere of 5% CO2 and 95% air for 10-14 days to allow viable cells to form colonies. Colonies were counted by eye. […] The plating efficiencies of the treated cells are normalized to the plating efficiencies of control cells in each experiment.
Cells were treated with various concentrations of the compounds listed in the table and various light fluences. DNA gels were prepared and examined for the characteristic “ladder” pattern of DNA fragments. For each Pc, the minimum total PDT dose tested (calculated as the product of the minimum phthalocyanine concentration and the minimum fluence) which produced visible DNA fragments is recorded. […] PcXVIII was also added at 0.5 and 1.0 μM.

`C[N+](C)(C)CCC[Si](C)(C)O[Si]1(O)n2c3c4ccccc4c2N=C2N=C(N=c4c5ccccc5c(n41)=NC1=NC(=N3)c3ccccc31)c1ccccc12.[I-]` (stereo not drawn) [Compound V, HOSiPcOSi(CH3)2(CH2)3N(CH3)3^+I^−]: the “Tumor Responses at 24 hours” value in series [1] (135 J/cm^2, light 24 h after dosing) is on record as “moderate”. Further, in [1] (135 J/cm^2, controls 4 days), the “Doubling Time of Initial Tumor Volume after PDT” value is reported as 6 days. In the series “Solubility”, the “solubility in H2O” value is listed as “insoluble”. The induction of apoptosis entry in the series with L5178Y cells is recorded as “did not induce apoptosis”. In addition, the “Growth Delay (12 kj/m^2), Efficiency Relative to 1 μM (AlPcCl)” value in series [2] came out at 0. In series [3], the “Uptake, Efficiency Relative to 1 μM (AlPcCl)” value was determined as 0.3. Further, in series [4], the “CF10(AIPcCI)/CF10 (Pc)” value was 3.0 and the “F10(AIPcCI)/F10 (Pc)” value amounted to 0.59.
Take `C[N+](C)(C)CCC[Si](C)(C)O[Si]1(O[Si](C)(C)CCC[N+](C)(C)C)n2c3c4ccccc4c2N=C2N=C(N=c4c5ccccc5c(n41)=NC1=NC(=N3)c3ccccc31)c1ccccc12.[I-].[I-]` [Compound VI, SiPc[OSi(CH3)2(CH2)3N(CH3)3)^+I^−]2]: the “solubility in H2O” value in “Solubility” is listed as “disperses in H2O but doses not dissolve in it”. The induction of apoptosis entry in the series with L5178Y cells is “did not induce apoptosis”. For the same compound, the “Growth Delay (12 kj/m^2), Efficiency Relative to 1 μM (AlPcCl)” value in [2] is listed as 0.5. For the same compound, the “Uptake, Efficiency Relative to 1 μM (AlPcCl)” value in series [3] worked out at 0.1.
With `CN(C)CCC[Si](C)(C)O[Si]1(C)n2c3c4ccccc4c2N=C2N=C(N=c4c5ccccc5c(n41)=NC1=NC(=N3)c3ccccc31)c1ccccc12` (stereo not drawn) [Compound III, CH3SiPcOSi(CH3)2(CH2)3N(CH3)2], in series [2], the “Growth Delay (12 kj/m^2), Efficiency Relative to 1 μM (AlPcCl)” value worked out at 0.05. Moreover, the “Uptake, Efficiency Relative to 1 μM (AlPcCl)” value in [3] came out at 0.07. Besides, the photolysis of solutions entry in series [5] is recorded as “rapidly photolyzed by white light”.
As for `C[Si](C)(CCCN1CCNCC1)O[Si]1(O[Si](C)(C)CCCN2CCNCC2)n2c3c4ccccc4c2N=C2N=C(N=c4c5ccccc5c(n41)=NC1=NC(=N3)c3ccccc31)c1ccccc12` [Compound XXXII, SiPc[OSi(CH3)2(CH2)3NC4H8NH]2], in “Solubility”, the “solubility in DMF” value was “not soluble in DMF”. Further, in the series with L5178Y cells, the “Fluence, Minimum Demonstrated Condition to Induce Apoptosis” value was determined as 5 kJ/m^2 and the “C × F Ld90, Minimum Demonstrated Condition to Induce Apoptosis” value is listed as 2.5 kJ/m^2.
As to `CN1CCN(CCC[Si](C)(C)O[Si]2(O[Si](C)(C)CCCN3CCN(C)CC3)n3c4c5ccccc5c3N=C3N=C(N=c5c6ccccc6c(n52)=NC2=NC(=N4)c4ccccc42)c2ccccc23)CC1` [Compound XXX, SiPc[OSi(CH3)2(CH2)3NC4H8NCH3]2], the “solubility in DMF” value in the series “Solubility” is “not soluble in DMF”. Also, in the series on L5178Y cells, the “Fluence, Minimum Demonstrated Condition to Induce Apoptosis” value was determined as 15.0 kJ/m^2 and the “C × F Ld90, Minimum Demonstrated Condition to Induce Apoptosis” value was found to be 7.5 kJ/m^2. In addition, the “Maximum Effect (% survival at kj/m^2)” value in series [4] (concentration not given, at 10 kj/m^2) is 30% at 10.
With “AlPcOSi(CH3)2(CH2)3N(CH3)3^+I^− [Compound II]”, the “solubility in H2O” value in “Solubility” is reported as “insoluble”. Besides, the “Growth Delay (12 kj/m^2), Efficiency Relative to 1 μM (AlPcCl)” value in series [2] is 3.4. In series [3], the “Uptake, Efficiency Relative to 1 μM (AlPcCl)” value came to 1.8. In [4], the “CF10(AIPcCI)/CF10 (Pc)” value is 0.72 and the “F10(AIPcCI)/F10 (Pc)” value was determined as 0.99.
Consider `CN(C)CCC[Si](C)(C)O[Si]1(O)n2c3c4ccccc4c2N=C2N=C(N=c4c5ccccc5c(n41)=NC1=NC(=N3)c3ccccc31)c1ccccc12` (stereo not drawn) [PcIV-HCl, HOSiPcOSi(CH3)2(CH2)3N(CH3)2(HCl)], for which, in series [6], the “effect of salt formulation on penetration through the skin” value is recorded as “does not hinder the penetration”.
`CC(=O)C(=O)O.CN(C)CCC[Si](C)(C)O[Si]1(O)n2c3c4ccccc4c2N=C2N=C(N=c4c5ccccc5c(n41)=NC1=NC(=N3)c3ccccc31)c1ccccc12` (stereo not drawn) [PcIV-pyruvate, HOSiPcOSi(CH3)2(CH2)3N(CH3)2(CH3C(O)COOH)]: the “efficiency in entering MCF-7c3 cells compared to PcIV” value in series [7] is “at least as efficient, and possibly more efficient”. In addition, the “effect of salt formulation on penetration through the skin” value in [6] (compared to PcIV) was “does not hinder the penetration”.
